From patent US7265155B2 (NBS Pharmaceuticals, Inc., priority 1996, dated 2007)
“Also recorded” adds a separate entry of the source. Like-named read-outs stand apart in the source and are kept apart here. Marks after values point to notes of the source that are not given here.

Tests used:
[1] = system: Frings audiogenic seizure-susceptible mouse; experiment: Frings audiogenic seizure-susceptible mouse model of epilepsy; type: in vivo; settings: for ED50: Mus musculus
From the text: One useful model is provided by the Frings audiogenic seizure-susceptible mouse, a model of reflex epilepsy. At the time of testing, individual mice are placed into a round Plexiglas chamber and exposed to a sound stimulus of 110 decibels, 11 kHz, for 20 seconds. Animals not displaying tonic hindlimb extensions were considered protected. In addition, the seizure score for each mouse can be recorded as: (1) running for less than 10 seconds; (2) running for greater than 10 seconds; (3) clonic activity of limbs and/or vibrissae; (4) forelimb extension/hindlimb flexion; and (5) hindlimb extension.
The average seizure score can be calculated for each group of mice employed in the dose-response study. At each dose, mice are also tested on a rotarod for testing of motor impairment (toxicity). Testing for motor impairment on the rotarod involves placing a mouse for a three-minute trial period on a one-inch diameter rod rotating at six revolutions per minute. If the mouse falls off of the rotating rod three times within the three-minute time period, it is considered a toxic response.

amygdala-kindled rat [2] = experiment: Anticonvulsant activity in the fully amygdala-kindled rat; type: in vivo; settings: oral dosing, sixty minutes before stimulation
Description: Isovaleramide was evaluated for its ability to block the expression of amygdala-kindled seizures in fully kindled rats. Isovaleramide was evaluated for its ability to block the kindled motor seizure (seizure scores of 4 and 5) and limbic behavioral seizures (seizure score between 1-3) as well as to affect changes in afterdischarge duration.
Adult, male Sprague-Dawley rats weighing at least 230 gr were implanted with a teflon-coated bipolar electrode sterotaxically placed in the anterior basolateral nucleus of the amygdala under ketamine and xylazine anesthesia. The electrode was implanted at the following coordinates with Bregma as zero: AP-2.2 mm, ML-4.7 mm, DV-8.7 mm. After a one-week recovery period, animals were kindled to Stage 5 behavioral seizures using a stimulus consisting of a 50 Hz, 1 sec train of 1 ms biphasic 150 uA pulses that were delivered once daily until 10 consecutive stage 5 seizures were evoked. Testing of isovaleramide was initiated after a one-week, stimulus-free period. On the compound test day, rats displaying a stage 5 seizure were divided into multiple treatment groups (i.e., vehicle control and isovaleramide treatment). Sixty minutes after oral dosing, individual rats received a 300 uA, 1 sec duration stimulation and their seizure score and afterdischarge duration recorded. Seizure score was classified according to Racine (Electroencephalogr. Clin. Neurophysiol. 32:281-294, (1972): stage 0: no abnormal behavior; stage 1: mouth or facial movements; stage 2: mouth or facial movements and head nodding; stage 3: stage 2 and forelimb clonus; stage 4: stage 3 and rearing; stage 5: stage 4 and falling. A score of 2-3 represents a focal seizure while a score of 4-5 represents secondarily generalized seizures. Afterdischarge duration was the total duration of the amygdala electroencephalogram spikes with an amplitude of at least twice the amplitude of the prestimulus recording and a frequency greater than 1/sec.

amygdala-kindled rat [3] = experiment: Antiepileptogenic effect during kindling in the amygdala-kindled rat; type: in vivo; settings: daily 500 mg/kg p.o.
Description: In these studies, groups of adult, male Sprague-Dawley rats weighing at least 230 gr were implanted with a teflon-coated bipolar electrode sterotaxically placed in the anterior basolateral nucleus of the amygdala under ketarine and xylazine anesthesia. The electrode was implanted at the following coordinates with Bregma as zero: AP-2.2 mm, ML-4.7 mm, DV-8.7 mm. Chronic treatment with vehicle (0.5% carboxymethylcellulose, p.o.) or isovaleramide (500 mg/kg, p.o., […] of body weight) was initiated after a seven-day postoperative recovery period. […] After 11 treatment days, all animals were permitted a 7-day drug- and stimulus-free period. […] Seizure score and afterdischarge duration were recorded after each stimulation. Seizure score was classified according to Racine scale (1972): stage 0, no abnormal behavior; stage 1, mouth or facial movements; stage 2, mouth or facial movements and head nodding; stage 3, stage 2 and forelimb clonus; stage 4, stage 3 and rearing; stage 5, stage 4 and falling. A score of 2-3 represents a focal seizure while a score of 4-5 represents secondarily generalized seizures. Afterdischarge duration was the total duration of the amygdala electroencephalogram spikes with an amplitude of at least twice the amplitude of the prestimulus recording and a frequency greater than 1/sec. […]

[4] = cited from earlier work
[5] = in vivo; cited from earlier work

With `CC(C)CC(N)=O` [Isovaleramide, isovaleramide] the “Number Protected of Eight Mice Tested” value ([1]; 75 mg/kg i.p., 15 minutes) was 1, the “Seizure Score ± S.E.M.” value ([1]; 75 mg/kg i.p., 15 minutes) was 4.4 ± 0.6 and the “Seizure Score ± S.E.M.” value ([1]; 100 mg/kg oral) was 4.5 ± 0.5. For the same compound, the “Number Protected of Eight Mice Tested” value ([1]; 100 mg/kg oral, measured at 30 minutes) was 1, the “Number Protected of Eight Mice Tested” value ([1]; 112.5 mg/kg i.p., 15 minutes) was 2 and the “Seizure Score ± S.E.M.” value ([1]; 112.5 mg/kg i.p., 15 minutes) was 4.0 ± 0.6. The “Number Protected of Eight Mice Tested” value ([1]; 150 mg/kg i.p., 15 minutes) was 6, the “Seizure Score ± S.E.M.” value ([1]; 150 mg/kg i.p., 15 minutes) was 2.0 ± 0.6 and the “Seizure Score ± S.E.M.” value ([1]; 200 mg/kg oral) was 2.9 ± 0.8. For the same compound, the “Number Protected of Eight Mice Tested” value ([1]; 200 mg/kg oral, measured at 30 minutes) was 4, the “Number Protected of Eight Mice Tested” value ([1]; 300 mg/kg i.p., 15 minutes) was 8 and the “Seizure Score ± S.E.M.” value ([1]; 300 mg/kg i.p., 15 minutes) was 1.0 ± 0. The “Seizure Score ± S.E.M.” value ([1]; 300 mg/kg oral) was 1.4 ± 0.5, the “Number Protected of Eight Mice Tested” value ([1]; 300 mg/kg oral, measured at 30 minutes) was 7 and the “Seizure Score ± S.E.M.” value ([1]; 600 mg/kg oral) was 0.25 ± 0.25. For the same compound, the “Number Protected of Eight Mice Tested” value ([1]; 600 mg/kg oral, measured at 30 minutes) was 8, the “Seizure Score ± S.E.M.” value ([1]; 1500 mg/kg oral) was 0.6 ± 0.2 and the “Number Protected of Eight Mice Tested” value ([1]; 1500 mg/kg oral, tested at 4 hours) was 8^b. For the same compound, the “Seizure Score ± S.E.M.” value ([1]; 2000 mg/kg oral) was 0 ± 0, the “Number Protected of Eight Mice Tested” value ([1]; 2000 mg/kg oral, tested at 4 hours, only seven mice tested) was 7^b,d and the ED50 ([1]; ip, 0.25 h, i.p., 15 minutes, read-out: ED50 for protection against tonic extension) was 126 mg/kg. For the same compound, the ED50 ([1]; oral, read-out: ED50 for protection) was 186 mg/kg, the “time course of anticonvulsant activity” value ([1]; i.p.) was “noted as early as 15 minutes, but decreased substantially by two hours” and the “seizure score, dose dependence” value ([1]; i.p., 15 minutes) was “dose-dependent reduction in seizure score”. The “anticonvulsant activity when administered orally” value ([1]; oral) was “displayed anticonvulsant activity when administered orally”, the afterdischarge duration (amygdala-kindled rat [2]) was “decreased” and the “generalized seizure responses of fully kindled rats” value (amygdala-kindled rat [2]) was “effective in reducing in a dose-dependent manner the generalized seizure responses; also recorded: effective in reducing, in a dose-dependent manner, the generalized seizure responses”. For the same compound, the mean seizure score (amygdala-kindled rat [2]) was “decreased”, the “seizure development over time” value (amygdala-kindled rat [3]) was “eventually developed full stage 5 seizures” and the “increases in seizure score and afterdischarge duration during electrical kindling” value (amygdala-kindled rat [3]; 30-minute pretreatment) was “delayed the increases in both seizure score and afterdischarge duration; also recorded: elicited a delay in the rate of increase in both seizure score and afterdischarge duration”. For the same compound, the “acute toxicity in vivo” value [4] was “low acute toxicity in vivo” and the anxiolytic properties [5] was “clinically useful anxiolytic properties”.
